# From patent US20250032430A1, “USES OF RHODOQUINONE FOR THE TREATMENT OF DISEASE” (Whitehead Institute for Biomedical Research, priority 2021, published 2025)
# Tested on: SW1353, U87, DLD1, HCT116, C2C12, primary dermal fibroblasts, Mink lung epithelial cells
# Test: Fumarate reduction in a panel of other cell lines
# Type: cell-based
# Settings: other human cancer cell lines
# Experimental: Stable isotope tracing in cells: Cells were seeded 24 hours prior to the experiment in 6-well dishes at 70% density. For stable isotope tracing of glutamine, glutamine-free DMEM (ThermoFisher) was supplemented with 2 mM ^13C5^15N2-glutamine (Sigma), 1 mM pyruvate, 5% FBS, 1% P/S, 0.1 mg/mL uridine. For stable isotope tracing of aspartate, DMEM containing 5% FBS, and 1% penicillin and streptomycin, and 0.1 mg/mL uridine (Sigma) was supplemented with the designated amount of 13C4-aspartate (Sigma) and the pH adjusted to 7.4. Uridine was left out of the media for stable isotope tracing experiments measuring nucleotide biosynthesis. Unless otherwise stated, for all experiments, cells were treated for 8 hours and metabolites were isolated as described below. Relevant compounds were added at the start of the incubation periods.
substance,measurement,value
antimycin,fumarate reduction,increased
